# Experimental data as given in US5464861A, “2-thioindoles (selenoindoles) and related disulfides (selenides) which inhibit protein tyrosine kinases and which have antitumor properties” (Warner-Lambert, priority 1993, dated 1995).
# Where two headings read alike, the source gives them in different places.
# Assays:
# [1] = tested on: Swiss 3T3 mouse fibroblasts; assay: Growth inhibition assay, Swiss 3T3 fibroblasts; type: cell-based
# Description: Swiss 3T3 mouse fibroblasts were maintained in dMEM/F12 media containing 10% fetal calf serum. […] The cells were grown at 37° C. under 5% CO2 for 72 hours and then counted by Coulter counter. The data were expressed as the concentration of inhibitor necessary to decrease the growth rate by 50%.
# [2] = target: T1, epidermal growth factor receptor tyrosine kinase (Homo sapiens, UniProt P00533); assay: EGF receptor tyrosine kinase assay (P^32 incorporation in GAT); type: biochemical; conditions: for inhibition at 100 µM: EGRF-R, read-out: % Inhibition at 100 μM (EGFR TK)
# T1 construct: A native 170,000 epidermal growth factor receptor-kinase complex from shed plasma membrane vesicles; endogenous in cells
# Outline: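 Receptor pre-activated with 150 ng EGF for 10 min at room temperature. ATP with or without compound then added and incubated 10 min at room temperature.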
# [3] = target: T2, human PDGF β receptor intracellular tyrosine kinase domain (Homo sapiens, UniProt P09619); assay: PDGF receptor tyrosine kinase inhibition assay (P^32 incorporation in Glu-Tyr); type: biochemical; conditions: for inhibition at 100 µM: read-out: % Inhibition at 100 μM (PDGFR TK); for IC50: Table 2, PDGF-R, IC50 entries, read-out: IC50 (PDGFR TK)
# T2 construct: human PDGF β receptor intracellular tyrosine kinase domain; made in house; host or cells: SF9 insect cells, recombinant baculovirus; cell lysates used
# Description: Recombinant baculovirus containing human PDGF β receptor intracellular tyrosine kinase domain was used to infect SF9 cells to overexpress the protein, and cell lysates were used for the assay. The ability of the tyrosine kinase to phosphorylate glutamate tyrosine substrate in the presence of P^32 -ATP and inhibitor was measured by counting the incorporation of P^32 in Glu-Tyr in TCAprecipitable material.
# [4] = Swiss 3T3, 72 hours, Table 2, read-out: IC50 growth inhibition
# [5] = Table 2, EGRF-R, IC50 entries, read-out: IC50 (EGFR TK)
# [6] = Swiss-3T3, 72 h, read-out: IC50 growth inhibition
# T1 sequence (P00533 25-1210): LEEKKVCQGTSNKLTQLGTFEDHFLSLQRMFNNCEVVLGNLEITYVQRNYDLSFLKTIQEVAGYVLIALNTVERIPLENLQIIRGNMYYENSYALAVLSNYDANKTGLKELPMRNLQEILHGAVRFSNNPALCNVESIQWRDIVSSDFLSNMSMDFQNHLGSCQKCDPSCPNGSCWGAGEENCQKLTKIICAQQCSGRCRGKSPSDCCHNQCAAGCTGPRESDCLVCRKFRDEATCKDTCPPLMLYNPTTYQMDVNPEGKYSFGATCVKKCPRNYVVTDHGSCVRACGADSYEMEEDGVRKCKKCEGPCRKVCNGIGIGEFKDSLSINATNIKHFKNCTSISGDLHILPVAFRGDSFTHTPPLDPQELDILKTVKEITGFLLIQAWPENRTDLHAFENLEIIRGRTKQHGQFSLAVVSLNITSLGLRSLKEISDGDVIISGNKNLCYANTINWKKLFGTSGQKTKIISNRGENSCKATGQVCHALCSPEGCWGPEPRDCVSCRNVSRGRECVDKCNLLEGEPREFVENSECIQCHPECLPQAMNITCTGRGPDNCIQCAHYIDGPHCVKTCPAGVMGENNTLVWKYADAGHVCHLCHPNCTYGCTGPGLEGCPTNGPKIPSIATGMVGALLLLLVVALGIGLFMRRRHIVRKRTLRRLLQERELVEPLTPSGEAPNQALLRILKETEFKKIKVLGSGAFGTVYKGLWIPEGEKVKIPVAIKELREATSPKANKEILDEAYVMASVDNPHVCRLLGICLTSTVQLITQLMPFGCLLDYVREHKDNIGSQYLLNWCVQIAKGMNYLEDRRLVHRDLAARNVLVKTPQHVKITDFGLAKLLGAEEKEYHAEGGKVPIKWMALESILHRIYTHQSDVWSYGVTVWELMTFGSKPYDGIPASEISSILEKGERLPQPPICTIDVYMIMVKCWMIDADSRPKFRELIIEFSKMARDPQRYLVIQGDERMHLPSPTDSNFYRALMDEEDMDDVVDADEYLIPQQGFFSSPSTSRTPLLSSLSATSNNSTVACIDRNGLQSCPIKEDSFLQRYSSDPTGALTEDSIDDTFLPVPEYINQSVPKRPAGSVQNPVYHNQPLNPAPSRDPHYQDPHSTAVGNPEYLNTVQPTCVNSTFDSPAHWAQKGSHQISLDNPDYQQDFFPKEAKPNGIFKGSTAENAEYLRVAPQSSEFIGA
# T1 sequence (P01133 971-1023 partner limits assumed): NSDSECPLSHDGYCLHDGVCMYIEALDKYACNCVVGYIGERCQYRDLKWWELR
# T2 sequence (P09619 554-1106 limits assumed): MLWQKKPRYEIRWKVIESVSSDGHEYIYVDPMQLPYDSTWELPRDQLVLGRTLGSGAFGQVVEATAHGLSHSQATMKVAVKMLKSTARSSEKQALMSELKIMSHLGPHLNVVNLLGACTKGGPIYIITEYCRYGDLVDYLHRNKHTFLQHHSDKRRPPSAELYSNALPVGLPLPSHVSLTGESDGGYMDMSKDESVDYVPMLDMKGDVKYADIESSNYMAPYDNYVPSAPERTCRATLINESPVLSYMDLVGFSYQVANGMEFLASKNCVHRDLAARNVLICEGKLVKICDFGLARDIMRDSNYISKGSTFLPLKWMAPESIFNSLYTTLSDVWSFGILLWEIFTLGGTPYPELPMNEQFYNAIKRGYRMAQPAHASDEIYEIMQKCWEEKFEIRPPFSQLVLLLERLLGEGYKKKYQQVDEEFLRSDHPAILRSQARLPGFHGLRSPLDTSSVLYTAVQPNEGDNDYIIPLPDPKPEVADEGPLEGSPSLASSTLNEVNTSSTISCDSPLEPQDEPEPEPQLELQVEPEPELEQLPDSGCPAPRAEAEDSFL
SMILES,"IC50 [2, 5]","inhibition at 100 µM ([3]; at 100 μM, PDGF-R)",inhibition at 100 µM [2],"IC50 [1, 4]",other results
"COc1ccc2c(C(=O)Nc3ccccc3)c(SSc3c(C(=O)Nc4ccccc4)c4ccc(OC)cc4n3C)n(C)c2c1 [Compound 81, bis[N-phenyl 6-methoxy-1-methylindolyl-3-carboxamide-(2)]disulfide]",3.6 µM,2%,–,17 µM,–
Cc1c(SSc2c(C)c3ccccc3n2C)n(C)c2ccccc12 [Compound 103],–,–,7%,–,"IC50 [1, 6]: 3.8 µM"
"O=C(O)CCC1C(=S)Nc2ccccc21 (centres unmarked) [Compound 7, 3-(2-thioxo-3-indolinyl)propanoic acid]",1.3 µM,–,–,94 µM,–
"CCN(CC)CCNC(=O)c1c([Se][Se]c2c(C(=O)NCCN(CC)CC)c3ccccc3n2C)n(C)c2ccccc12 [Compound 132, 2,2'-diselenobis [N-[2-(diethylamino)ethyl]-1-methyl-1H-indole-3-carboxamide]]",–,–,–,–,"IC50 [1, 6]: 20 µM; IC50 ([2]; read-out: IC50 (EGFR TK)): 4.7 µM"
"Cn1c(SSc2c(C(=O)Nc3ccccc3)c3cccnc3n2C)c(C(=O)Nc2ccccc2)c2cccnc21 [Compound 83, 2,2'-dithiobis [N-phenyl-1-methyl-7-azaindolyl-3-carboxamide]]",22.3 µM,57%,–,10 µM,–
"Cc1ccc2[nH]c(SSc3[nH]c4ccc(C)cc4c3CCC(=O)O)c(CCC(=O)O)c2c1 [Compound 41, bis[5-methylindolyl-3-propanoic acid-(2)]disulfide]",8.4 µM,–,–,> 25 µM,–
"Cc1ccc(S(=O)(=O)c2c(SSc3[nH]c4ccccc4c3S(=O)(=O)c3ccc(C)cc3)[nH]c3ccccc23)cc1 [Compound 99, bis[3-(4-methylphenylsulfonyl)-2-indolyl]disulfide]",40 µM,19%,–,–,"IC50 [1, 6]: 2.8 µM"
"COC(=O)Cc1c(SSSc2[nH]c3ccccc3c2CC(=O)OC)[nH]c2ccccc12 [Compound 31, bis[methylindolyl-3-acetate-(2)]trisulfide]",35.5 µM,–,–,1 µM,–
"NC(Cc1c(SSc2[nH]c3ccccc3c2CC(N)C(=O)NCc2ccccc2)[nH]c2ccccc12)C(=O)NCc1ccccc1 (racemic) [Compound 62, 2,2'-dithiobis[α-amino-N-benzyl-3-(3-indolyl)propanamide]]",6 µM,71%,–,–,"IC50 [1, 6]: 5.3 µM"
"COC(=O)CCc1c(SSc2c(CCC(=O)OC)c3ccccc3n2C)n(C)c2ccccc12 [Compound 40, 2,2'-dithiobis[methyl 3-(1-methyl-3-indolyl)propanoate]]",–,–,16.3%,5.2 µM,–
"CCn1c(SSc2c(C(=O)Nc3ccccc3)c3ccccc3n2CC)c(C(=O)Nc2ccccc2)c2ccccc21 [Compound 71, bis[N-phenyl 1-ethylindolyl-3-carboxamide-(2)]disulfide]",–,–,20%,–,"IC50 [1, 6]: 52 µM; inhibition at 100 µM [3]: 5%"
"CN(C)CCNC(=O)c1c(SSc2c(C(=O)NCCN(C)C)c3ccccc3n2C)n(C)c2ccccc12 [Compound 115, 2,2'-dithiobis [N-(N,N-dimethylaminoethyl) 1-methylindolyl-3-carboxamide]]",26 µM,–,–,> 50 µM,IC50 [3]: 19.7 µM
O=C(CCc1c(SSc2[nH]c3ccccc3c2CCC(=O)NCc2ccccc2)[nH]c2ccccc12)NCc1ccccc1 [Compound 47],0.85 µM,–,–,6 µM,–
"CCN(CC)CCNC(=O)c1c([Se][Se]c2[nH]c3ccccc3c2C(=O)NCCN(CC)CC)[nH]c2ccccc12 [Compound 134, 2,2'-diselenobis [N-[2-(diethylamino)ethyl]-1H-indole-3-carboxamide]]",–,–,–,–,"IC50 [1, 6]: 8 µM"
"CNC(=O)c1c([Se][Se]c2c(C(=O)NC)c3ccccc3n2C)n(C)c2ccccc12 [Compound 131, 2,2'-diselenobis [N,1-dimethyl-1H -indole-3-carboxamide]]",–,–,–,–,"IC50 [1, 6]: 5.5 µM; IC50 [2]: 5.8 µM"
"CCOC(=O)CCc1c(SSc2[nH]c3c(C)cccc3c2CCC(=O)OCC)[nH]c2c(C)cccc12 [Compound 46, bis[ethyl 7-methylindolyl-3-propanoate-(2)] disulfide]",–,–,11.4%,2.7 µM,–
"COC(=O)CCCc1c(SSc2c(CCCC(=O)OC)c3ccccc3n2C)n(C)c2ccccc12 [Compound 68, bis[methyl 1-methylindolyl-3-butanoate-(2)]disulfide]",–,–,14%,1.8 µM,–
"O=C(CCc1c(SSc2[nH]c3ccccc3c2CCC(=O)NCc2ccc(C(=O)O)cc2)[nH]c2ccccc12)NCc1ccc(C(=O)O)cc1 [Compound 56, 2,2'-dithiobis[N-(4-carboxybenzyl)-3-(3-indolyl)propanamide]]",7.3 µM,44.5%,–,–,–
"CNC(=O)c1c([Se][Se]c2[nH]c3ccccc3c2C(=O)NC)[nH]c2ccccc12 [Compound 133, 2,2'-diselenobis[N-methyl-1H-indole-3-carboxamide]]",–,–,–,–,"IC50 [1, 6]: < 5 µM; IC50 ([2]; read-out: IC50 (EGFR TK)): 13 µM"

# Second part, led by results:
"IC50 [2, 5]","inhibition at 100 µM ([3]; at 100 μM, PDGF-R)",inhibition at 100 µM [2],SMILES,"IC50 [1, 4]",other results
–,19%,7%,"Cc1ccc2c(c1)c(C(=O)Nc1ccccc1)c(SSc1c(C(=O)Nc3ccccc3)c3cc(C)ccc3n1C)n2C [Compound 76, bis [N-phenyl 1,5-dimethylindolyl-3-carboxamide-(2)] disulfide]",22 µM,–
1.5 µM,9%,–,"Cn1c(SSc2c(C(=O)NCc3ccccc3)c3ccccc3n2C)c(C(=O)NCc2ccccc2)c2ccccc21 [Compound 98, bis[N-benzyl 1-methylindolyl-3-carboxamide-(2)]disulfide]",5 to 12 µM,–
–,–,10%,"CCOC(=O)CCC1C(=S)Nc2ccccc21 (centres unmarked) [Compound 10, ethyl 3-(2-thioxo-3-indolinyl) propanoate]",34 µM,–
4.8 µM,–,–,"O=C(O)CCc1c(SSc2[nH]c3ccccc3c2CCC(=O)O)[nH]c2ccccc12 [Compound 36, bis[indolyl-3-propanoic acid-(2)]disulfide]",59 µM,–
–,5%,16.6%,"CCOC(=O)CCc1c(SSc2[nH]c3cc(C)ccc3c2CCC(=O)OCC)[nH]c2cc(C)ccc12 [Compound 44, bis[ethyl 6-methylindolyl-3-propanoate-(2)] disulfide]",2.4 µM,–
20.6 µM,–,–,COC(=O)CCc1c(SSc2[nH]c3ccccc3c2CCC(=O)OC)[nH]c2ccccc12 [Compound 39],7.4 µM,–
6.5 µM,–,–,"COc1cccc2c(C(=O)Nc3ccccc3)c(SSc3c(C(=O)Nc4ccccc4)c4cccc(OC)c4n3C)n(C)c12 [Compound 82, bis[N-phenyl 7-methoxy-1-methylindolyl-3-carboxamide-(2)]disulfide]",24 µM,–
–,–,36.5%,"CCOC(=O)CCc1c(SSc2[nH]c3ccccc3c2CCC(=O)OCC)[nH]c2ccccc12 [Compound 38, bis[ethylindolyl-3-propanoate-(2)] disulfide]",1.6 µM,–
9.3 µM,–,–,"O=C(O)Cc1c(SSSc2[nH]c3ccccc3c2CC(=O)O)[nH]c2ccccc12 [Compound 30, bis[indolyl-3-acetic acid-(2)]trisulfide]",8 µM,–
17.8 µM,–,–,"COC(=O)Cc1c(SSc2[nH]c3ccccc3c2CC(=O)OC)[nH]c2ccccc12 [Compound 27, bis[methylindolyl-3-acetate-(2)]disulfide]",2.3 µM,–
–,3%,6%,"Cc1cccc2c1c(C(=O)Nc1ccccc1)c(SSc1c(C(=O)Nc3ccccc3)c3c(C)cccc3n1C)n2C [Compound 75, bis[N-phenyl 1,4-dimethylindolyl-3-carboxamide-(2)]disulfide]",4 µM,–
10.1 µM,–,–,"CNC(=O)c1c(SSc2c(C(=O)NC)c3ccccc3n2C)n(C)c2ccccc12 [Compound 97, bis[N-methyl 1-methylindolyl-3-carboxamide-(2)]disulfide]",1.8 µM,IC50 [3]: 28.1 µM
8.3 µM,–,–,"O=C(O)Cc1c(SSc2[nH]c3ccccc3c2CC(=O)O)[nH]c2ccccc12 [Compound 29, bis[indolyl-3-acetic acid-(2)] disulfide]",25 to 100 µM,–
–,–,52%,"COC(=O)CCC1C(=S)Nc2ccccc21 (centres unmarked) [Compound 9, methyl 3-(2-thioxo-3-indolinyl)propanoate]",16 µM,–
–,8.9%,55.6%,O=C(CCCc1c(SSc2[nH]c3ccccc3c2CCCC(=O)NCc2ccccc2)[nH]c2ccccc12)NCc1ccccc1 [Compound 69],–,–
30.5 µM,11.4%,–,O=C(CCc1c(SSc2[nH]c3ccccc3c2CCC(=O)Nc2ccccc2)[nH]c2ccccc12)Nc1ccccc1 [Compound 59],–,–
47 µM,8%,–,"Cn1c(SSc2c(C(=O)Nc3ccccc3C(=O)O)c3ccccc3n2C)c(C(=O)Nc2ccccc2C(=O)O)c2ccccc21 [Compound 109, 2,2'-dithiobis[N-(2'-carboxy)phenyl-1-methylindolyl-3-carboxamide]]",–,–
–,14.5%,46%,COC(=O)c1ccc(CNC(=O)CCc2c(SSc3[nH]c4ccccc4c3CCC(=O)NCc3ccc(C(=O)OC)c(O)c3)[nH]c3ccccc23)cc1O [Compound 57],–,–
68.2 µM,18.3%,–,CONC(=O)CCc1c(SSc2[nH]c3ccccc3c2CCC(=O)NOC)[nH]c2ccccc12 [Compound 52],–,–
